Measurements from patent US20060281755A1, “SYNERGISTIC MODULATION OF FLT3 KINASE USING AMINOPYRIMIDINES KINASE MODULATORS” (priority 2005, published 2006).

What was measured:
MV4-11 cells = experiment: Inhibition of MV4-11 cell proliferation (CellTiterGlo); conditions: Homo sapiens, MV4-11, 72 h, read-out: MV4-11 (uM)
Description: To measure total cell growth an equal volume of CellTiterGlo reagent was added to each well, according to the manufacturer's instructions, and luminescence was quantified.
MV4-11 cells express the FLT3 internal tandem duplication mutation, and thus are entirely dependent upon FLT3 activity for growth. […] In contrast, the Baf3 cell proliferation is driven by the cytokine IL-3 and thus are used as a non-specific toxicity control for test compounds.

[1] = molecular target: T1, FLT ligand-induced wild-type FLT3 phosphorylation in Baf3 FLT3 cells (Homo sapiens, UniProt P36888); experiment: Cell-based FLT3 receptor ELISA
T1 sequence (P36888 27-993): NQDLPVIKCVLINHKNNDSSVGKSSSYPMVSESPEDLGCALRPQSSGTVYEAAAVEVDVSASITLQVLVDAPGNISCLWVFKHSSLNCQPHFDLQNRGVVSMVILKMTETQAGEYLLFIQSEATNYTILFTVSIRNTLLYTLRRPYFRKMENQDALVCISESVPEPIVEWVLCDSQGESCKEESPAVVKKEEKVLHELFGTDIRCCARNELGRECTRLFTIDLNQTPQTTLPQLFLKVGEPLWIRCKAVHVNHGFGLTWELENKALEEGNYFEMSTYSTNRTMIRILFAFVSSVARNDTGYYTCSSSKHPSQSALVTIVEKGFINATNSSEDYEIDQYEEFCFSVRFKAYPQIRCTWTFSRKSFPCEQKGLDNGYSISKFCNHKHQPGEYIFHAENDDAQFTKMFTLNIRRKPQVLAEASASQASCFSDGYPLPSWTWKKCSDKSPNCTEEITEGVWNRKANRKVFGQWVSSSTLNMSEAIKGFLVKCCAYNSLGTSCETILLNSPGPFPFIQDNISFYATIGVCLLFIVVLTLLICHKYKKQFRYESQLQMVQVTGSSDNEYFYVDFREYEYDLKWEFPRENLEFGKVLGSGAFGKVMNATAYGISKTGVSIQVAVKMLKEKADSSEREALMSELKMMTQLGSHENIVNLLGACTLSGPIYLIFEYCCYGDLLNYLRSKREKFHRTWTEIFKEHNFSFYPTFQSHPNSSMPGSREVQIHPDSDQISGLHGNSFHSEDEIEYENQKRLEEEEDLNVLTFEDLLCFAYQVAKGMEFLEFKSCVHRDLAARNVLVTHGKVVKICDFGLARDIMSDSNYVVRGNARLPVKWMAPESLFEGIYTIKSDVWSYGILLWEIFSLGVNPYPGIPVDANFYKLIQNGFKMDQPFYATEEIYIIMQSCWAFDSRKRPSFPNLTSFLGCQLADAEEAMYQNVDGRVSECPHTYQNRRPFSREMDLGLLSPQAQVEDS
Description: Specific cellular inhibition of FLT ligand-induced wild-type FLT3 phosphorylation was measured in the following manner: Baf3 FLT3 cells overexpressing the FLT3 receptor were obtained from Dr. Michael Heinrich (Oregon Health and Sciences University).

[2] = molecular target: T2, isolated kinase domain of the human FLT3 receptor (a.a. 571-993) (Homo sapiens, UniProt P36888); experiment: FLT3 fluorescence polarization kinase assay; type: biochemical; conditions: uncertainty ±10%
T2 construct: human FLT3 receptor (a.a. 571-993)
T2 sequence (P36888 571-993): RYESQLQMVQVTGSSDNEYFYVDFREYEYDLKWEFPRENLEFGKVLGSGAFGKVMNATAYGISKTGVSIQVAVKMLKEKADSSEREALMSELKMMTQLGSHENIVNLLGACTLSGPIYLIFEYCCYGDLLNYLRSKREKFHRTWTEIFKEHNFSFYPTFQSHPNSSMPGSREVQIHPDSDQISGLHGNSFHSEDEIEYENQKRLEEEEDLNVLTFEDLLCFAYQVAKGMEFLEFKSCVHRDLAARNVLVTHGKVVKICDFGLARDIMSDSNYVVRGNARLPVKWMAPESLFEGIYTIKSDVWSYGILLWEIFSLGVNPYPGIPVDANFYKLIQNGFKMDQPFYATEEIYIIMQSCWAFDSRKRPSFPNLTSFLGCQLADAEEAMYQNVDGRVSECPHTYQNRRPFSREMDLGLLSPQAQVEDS
Text: The FLT3 FP assay utilizes the fluorescein-labeled phosphopeptide and the anti-phosphotyrosine antibody included in the Panvera Phospho-Tyrosine Kinase Kit (Green) supplied by Invitrogen. When FLT3 phosphorylates polyGlu4Tyr, the fluorescein-labeled phosphopeptide is displaced from the anti-phosphotyrosine antibody by the phosphorylated poly Glu4Tyr, thus decreasing the FP value. […] The kinase reaction is stopped with the addition of EDTA. The fluorescein-labeled phosphopeptide and the anti-phosphotyrosine antibody are added and incubated for 30 minutes at room temperature.

CO/N=C/c1c(N)ncnc1N1CCN(C(=O)Cc2ccc(C(C)C)cc2)CC1 [Compound 7, 4-Amino-6-{4-[2-(4-isopropyl-phenyl)-acetyl]-piperazin-1-yl}-pyrimidine-5-carbaldehyde O-methyl-oxime]
IC50 (MV4-11 cells): 0.024 µM
IC50 [1]: 2 nM
IC50 [2]: 14 nM

CCO/N=C/c1c(N)ncnc1N1CCN(C(=O)Cc2ccc(C(C)C)cc2)CC1 [Compound 13, 4-Amino-6-{4-[2-(4-isopropyl-phenyl)-acetyl]-piperazin-1-yl}-pyrimidine-5-carbaldehyde O-ethyl-oxime (anti-configuration for —C═N—O—)]
IC50 (MV4-11 cells): 0.013 µM
IC50 [1]: 116 nM
IC50 [2]: 8 nM

CCO/N=C\c1c(N)ncnc1N1CCN(C(=O)Cc2ccc(C(C)C)cc2)CC1 [Compound 14, 4-Amino-6-{4-[2-(4-isopropyl-phenyl)-acetyl]-piperazin-1-yl}-pyrimidine-5-carbaldehyde O-ethyl-oxime (syn-configuration for —C═N—O—)]
IC50 (MV4-11 cells): 0.029 µM
IC50 [1]: 158 nM
IC50 [2]: 24 nM

CCO/N=C/c1c(N)ncnc1N1CCN(C(=O)Nc2ccc(N3CCOCC3)cc2)CC1 [Compound 15, 4-[6-Amino-5-(ethoxyimino-methyl)-pyrimidin-4-yl]-piperazine-1-carboxylic acid (4-morpholin-4-yl-phenyl)-amide]
IC50 (MV4-11 cells): 0.35 µM
IC50 [1]: 735 nM
IC50 [2]: 126 nM

CO/N=C/c1c(N)ncnc1N1CCCN(C(=O)Nc2ccc(OC(C)C)cc2)CC1 [Compound 24, 4-[6-Amino-5-(methoxyimino-methyl)-pyrimidin-4-yl]-[1,4]diazepane-1-carboxylic acid (4-isopropoxy-phenyl)-amide]
IC50 (MV4-11 cells): 0.66 µM
IC50 [1]: 16 nM
IC50 [2]: 122 nM

CC(C)Oc1ccc(NC(=O)N2CCN(c3ncnc(N)c3/C=N/OCCN)CC2)cc1 [Compound 25, 4-{6-Amino-5-[(2-amino-ethoxyimino)-methyl]-pyrimidin-4-yl}-piperazine-1-carboxylic acid (4-isopropoxy-phenyl)-amide]
IC50 (MV4-11 cells): 2 µM
IC50 [2]: 1150 nM

CCNC(=O)NCCO/N=C/c1c(N)ncnc1N1CCN(C(=O)Nc2ccc(OC(C)C)cc2)CC1 [Compound 26, 4-(6-Amino-5-{[2-(3-ethyl-ureido)-ethoxyimino]-methyl}-pyrimidin-4-yl)-piperazine-1-carboxylic acid (4-isopropoxy-phenyl)-amide]
IC50 (MV4-11 cells): > 1 µM

Nc1ncnc(N2CCN(C(=O)Nc3ccc(N4CCOCC4)cc3)CC2)c1/C=N/OCCN1CCOCC1 [Compound 29, 4-{6-Amino-5-[(2-morpholin-4-yl-ethoxyimino)-methyl]-pyrimidin-4-yl}-piperazine-1-carboxylic acid (4-morpholin-4-yl-phenyl)-amide]
IC50 (MV4-11 cells): 3 µM
IC50 [2]: > 10000 nM

Nc1ncnc(N2CCN(C(=O)Nc3ccc(OC4CCC4)nc3)CC2)c1/C=N/OCCN1CCOCC1 [Compound 30, 4-{6-Amino-5-[(2-morpholin-4-yl-ethoxyimino)-methyl]-pyrimidin-4-yl}-piperazine-1-carboxylic acid (6-cyclobutoxy-pyridin-3-yl)-amide]
IC50 (MV4-11 cells): 2.5 µM
IC50 [2]: 1740 nM

NCCO/N=C/c1c(N)ncnc1N1CCN(C(=O)Nc2ccc(OC3CCC3)nc2)CC1 [Compound 31, 4-{6-Amino-5-[(2-amino-ethoxyimino)-methyl]-pyrimidin-4-yl}-piperazine-1-carboxylic acid (6-cyclobutoxy-pyridin-3-yl)-amide]
IC50 (MV4-11 cells): 1.3 µM
IC50 [1]: 206 nM
IC50 [2]: 1450 nM

NCCO/N=C/c1c(N)ncnc1N1CCN(C(=O)Nc2ccc(N3CCOCC3)cc2)CC1 [Compound 32, 4-{6-Amino-5-[(2-amino-ethoxyimino)-methyl]-pyrimidin-4-yl}-piperazine-1-carboxylic acid (4-morpholin-4-yl-phenyl)-amide]
IC50 (MV4-11 cells): 0.79 µM
IC50 [1]: 77 nM
IC50 [2]: 5150 nM

CS(=O)(=O)NCCO/N=C/c1c(N)ncnc1N1CCN(C(=O)Nc2ccc(OC3CCC3)nc2)CC1 [Compound 33, 4-{6-Amino-5-[(2-methanesulfonylamino-ethoxyimino)-methyl]-pyrimidin-4-yl}-piperazine-1-carboxylic acid (6-cyclobutoxy-pyridin-3-yl)-amide]
IC50 (MV4-11 cells): 2.8 µM
IC50 [2]: 1150 nM

NCCO/N=C/c1c(N)ncnc1N1CCN(C(=O)Nc2ccc(N3CCCC3)cc2)CC1 [Compound 34, 4-{6-Amino-5-[(2-amino-ethoxyimino)-methyl]-pyrimidin-4-yl}-piperazine-1-carboxylic acid (4-pyrrolidin-1-yl-phenyl)-amide]
IC50 (MV4-11 cells): 2.5 µM
IC50 [2]: 1510 nM
